From patent US5278045A, “Method and compositions to screen compounds for enhancement of the cholinergic, dopaminergic and serotonergic function” (Du Pont Merck Pharmaceutical Company, priority 1990, dated 1994)

Tests used:
ACh release = experiment: Neurotransmitter release assay: stimulated ACh release from brain slices; set-up: species or system rat; conditions: concentration to enhance stimulated release of ACh by 100% (2-fold) over control, from dose response curves
Procedure: Male Wistar rats weighing 175-200 g were euthanatized and the brains were dissected out immediately. Slices (0.3 mm thick) from the parietal cortex were prepared manually by using a recessed Lucite® guide. Slices (1.5 mm thick) from the hippocampus and the caudate nucleus were prepared by using a slotted brain holder. All slices were subsequently cut into 0.25×0.25 mm squares with a McIlwain tissue chopper.
Labeling of transmitter stores in slices was prepared by the following methods. For ACh release, slices (approximately 100 mg wet weight) were incubated in 10 ml Krebs-Ringer (KR) medium containing (mM): NaCl(116), KCl(3), CaCl2 (1.3), MgCl2 (1.2), KH2 PO4 (1.2), Na2 SO4 (1.2), NaHCO3 (25) and glucose(11), to which 10 μCi ^3 H-choline (specific activity approx. 80 Ci/mmol: NEN) and 10 nmol unlabeled choline had been added to give a final concentration of 10^-6 M. Incubation was carried out for 30 min at 37° C. under a steady flow of 95% O2 /5% CO2. Under these conditions, part of the radioactive choline taken up is converted into radioactive ACh by cholinergic nerve endings, stored in synaptic vesicles, and released upon depolarization by high-K^+ -containing medium [Molenaar et al., 1973a]. For dopamine (DA), serotonin (5-HT), and norepinephrine (NE) release, slices (approximately 100 mg wet weight) were incubated in KR medium containing 0.01 mM nialamide at 37° C. under a steady flow of 95% O2 /5% CO2. The MAO-inhibitor nialamide was added to the medium in order to inhibit metabolism to the monoamines. Incubation was for 30 min in 10 ml of KR medium to which 10 μCi ^3 H-dopamine, ^3 H-norepinephrine, or ^3 H-5-hydroxytryptamine (specific activity 30, 45, and 78 Ci/mmol, respectively: all from NEN) had been added.
Separate experiments were performed for the release of each neurotransmitter. After labeling of the transmitter stores, the slices were washed three times with non-radioactive KR medium and transferred to a superfusion apparatus to measure the drug effects on transmitter release [Schoemaker et al., Psychopharmacology 74, 137 (1981)]. The superfusion apparatus consisted of 10 thermo-jacketed glass columns of 5 mm diameter which were provided with GF/F glass fiber filters to support the brain slices (approximately 10 mg tissue/column). Superfusion was carried out with KR medium at a rate of 0.3 ml/min. For ACh release, 10^-5 M hemicholinium-3 was added to the medium to prevent the uptake of choline formed during superfusion from phospholipids and released ACh, so that it could not be subsequently converted into newly synthesized ACh, which would be released in preference to the pre-formed, labeled ACh. The medium was delivered by a 25-channel peristaltic pump (Ismatec; Brinkman) and maintained at 37° C. by a thermostated stainless-steel heating coil before entering the superfusion column. Each column was provided with a four-way slider valve (Beckman Instruments) which allowed rapid change of low-to-high-K^+ -KR-medium and with two 10-channel, 3-way valves which were used to change form drug-free to drug-containing low- and high-K^+ -KR media.
After 15 min washout of non-specifically bound radioactivity during superfusion, the collection of fractions of 4 min (1.2 ml) each was started. After 3×4 min, the KR medium was changed to a KR medium with 25 mM KCl (ACh, 5-HT release) or 12.5 mM KCl (DA release) (high K^+ -KR medium; S1). Depolarization-induced stimulation of release by high-K^+ -KR medium was then substituted by drug- or vehicle-containing low- and high-K^+ -KR medium and superfusion continued for 3×4 min with low-K^+ -KR medium, for 1×4 min with high-K^+ -KR medium (S2), and for 2×4 min with low-K^+ -KR medium.
Compounds were added to the medium by 100-fold dilution of appropriate stock solutions (in 0.9% NaCl/H2 O) with either low- or high-K^+ -KR medium.
All superfusion fractions were collected in liquid scintillation counting vials.

DuP 996 binding protein = experiment: Radioreceptor screening assay (displacement of tritiated DuP 996); set-up: species or system rat; conditions: inhibition of binding of 10 nM tritiated DuP 996, pH 7.4, 25° C., 60 minutes
Procedure: Male Sprague-Dawley rats (Charles River Breeding Laboratories) at 200-250 g were euthanatized by decapitation. Rat brain regions were dissected according to Heffner et al., Pharmacol. Biochem. Behav., 13, 453 (1980). Brain membranes were prepared by the method of Tam, Proc. Natl. Acad. Sci. USA, 80, 6703 (1983). The brain tissues were homogenized (20 sec) in 10 vol (wt/vol) of ice-cold 0.32M sucrose with a Brinkman Polytron (setting 8). The homogenate was centrifuged at 920×g for 10 min at 4° C. The supernatant was centrifuged at 47,000×g for 20 min. The resulting membrane pellet was resuspended in 10 vol (original wt/vol) of 50 mM Tris-HCl (pH 7.4) and incubated at 37° C. for 30 min to degrade and dissociate bound endogenous ligands. The membranes were then centrifuged at 47,000×g for 20 min and resuspended in 50 mM Tris-HCl.
Compounds to be screened were incubated with brain membranes. (1-2 mg protein) in 50 mM Tris-HCl buffer, pH 7.4, for 10 minutes in 25° C. Then 10 nM tritiated DuP 996 or its active structural analogs were added and incubated at 25° C. for 60 minutes. The samples were filtered on Whatman GF/B glass filters which had been soaked in 0.2% polyethylenimine and washed 3 times each with 5 ml of ice-cold Tris buffer. Nonspecific binding was determined by performing binding in the presence of 10 μM DuP 996. The control represents specific binding in the absence of compounds to be screened. Screened compounds which inhibited the specific binding of tritiated DuP 996 or analogs to its binding protein should be active in binding to the same protein. This is illustrated further in Example 4, Part B.

Compound	IC50 (DuP 996 binding protein) [µM]	ACh Release EC100 (ACh release)
c1cnc2c(c1)C(Cc1ccncc1)(Cc1ccncc1)c1cccnc1-2 [Compound 12, 5,5-Bis(4-pyridinyl-methyl)-5H-cyclopenta(2,1-B:3,4-B')-dipyridine]	0.168	1,400 nM
Cc1ccc2c(c1)C(Cc1ccncc1)(Cc1ccncc1)c1ccccc1-2 [Compound 8, 4-[2-Methyl-9-(4-pyridinyl-methyl)-9H-fluoren-9-ylmethyl]pyridine]	0.062	170 nM
O=C1N(c2ccccc2)c2ccccc2C1(Cc1ccncc1)Cc1ccncn1 (stereo not shown) [Compound 13, 1,3-Dihydro-1-phenyl-3-(4-pyridinylmethyl)-3(4-pyrimidinylmethyl)-2H-indol-2-one]	0.179	1,500 nM
O=C1c2ccccc2C(Cc2ccncc2)(Cc2ccncc2)c2ccccc21 [Compound 4, 10,10-Bis(4-pyridinylmethyl)-9(10H)-anthracenone]	0.034	90 nM
c1ccc2c(c1)Sc1ccccc1C2(Cc1ccncc1)Cc1ccncc1 [Compound 6, 4,4'-[9H-Thioxanthen-9,9-diylbis(methylene)]pryidine]	0.051	1,500 nM
c1ccc2c(c1)-c1ccccc1C2(Cc1ccncc1)Cc1ccncc1 [Compound 9, 9,9-Bis(4-pyridinylmethyl)-9H-fluorene]	0.062	340 nM
Nc1ccc2c(c1)C(Cc1ccncc1)(Cc1ccncc1)c1ccccc1-2 [Compound 2, 9,9-Bis-(4-pyridinylmethyl)-9H-fluorene-2-amine]	0.03	140 nM
C=C1c2cccc3cccc(c23)C1(Cc1ccncc1)Cc1ccncc1 [Compound 11, 4-[1,2-Dihydro-2-methyl-ene-1-(4-pyridinylmethyl)-1-acenaphthylen-1-yl-methyl]-pyridine]	0.12	3,300 nM
3,3-Bis(3-pyridinylmethyl)-1-phenyl-1H-indol-2(3H)one N-oxide [Compound 23]		100,000 nM
COc1ccc(C(C#N)(Cc2ccncc2)Cc2ccncc2)cc1 [Compound 10, α-(4-Methoxyphenyl)-α-(4-pyridinylmethyl)-4-pyridinepropane nitrile]	0.119	1,600 nM

Second part, led by results:

IC50 (DuP 996 binding protein) [µM]	Compound	ACh Release EC100 (ACh release)
1.17	O=C1N(Cc2ccccc2)c2ccccc2C1(Cc1ccncc1)Cc1ccncc1 [Compound 19, 3,3-Bis(4-pyridinyl-methyl)-1,3-dihydro-1-(phenylmethyl)-2H-indol-2-one]	4,500 nM
990	O=C1N(c2ccccc2)c2ccccc2C1(Cc1cnn(Cc2ccccc2)c1)Cc1cnn(Cc2ccccc2)c1 [Compound 27, 3,3-Bis[1-(phenylmethyl)-1H-pyrazol-4-ylmethyl]-1,3 dihydro-1-phenyl-2H-indol-2-one]	1,300,000 nM
6.03	O=C1C(Cc2cccnc2)c2ccccc2N1c1ccccc1 (stereo not shown) [Compound 21, 1,3-Dihydro-1-phenyl-3-(3-pyridinylmethyl)-2H-indol-2-one]	12,000 nM
15.9	CN1C(=O)C(Cc2ccncc2)(Cc2ccncc2)c2ccccc21 [Compound 22, 1,3-Dihydro-1-methyl-3-3-bis(4-pyridinylmethyl)-2-H-indol-2-one]	17,000 nM
980	O=C1C(C(O)(c2ccccn2)c2ccccn2)c2ccccc2N1c1ccccc1 (stereo not shown) [Compound 26, 3[Bis(2-pyridinyl)-(hydroxy)methyl]-1,3-dihydro-1-phenyl-2H-indol-2-one]	1,000,000 nM
0.198	Cc1ccc2c(c1)N(c1ccccc1)C(=O)C2(Cc1ccncc1)Cc1ccncc1 [Compound 14, 3,3-Bis(4-pyridinylmethyl)-1,3-dihydro-6-methyl-1-phenyl-2H-indol-2-one]	4,800 nM
1100	c1ccc(CC2(Cc3ccccn3)c3ccccc3-c3ccccc32)nc1 [Compound 29, 2-[9-(2-pyridinylmethyl)-9H-fluoren-9-ylmethyl]-pyridine]	990,000 nM
1000	O=C1N(c2ccccc2)c2ccccc2C1(Cc1ccnnc1)Cc1ccnnc1 [Compound 28, 3,3-Bis(4-pyridazinyl-methyl)-1,3-dihydro-1-phenyl-2H-indol-2-one]	1,000,000 nM
4.2	O=C1N(c2ccccc2)c2ccccc2C1(Cc1cnccn1)Cc1cnccn1 [Compound 20, 3,3-Bis(2-pyrazinylmethyl)-1-phenyl-1H-indol-2(3H)-one]	11,000 nM
75.9	O=C1N(c2ccccc2)c2ccccc2C1(c1cncnc1)c1cncnc1 [Compound 24, 3,3-Bis(5-pyrimidinyl)-1,3-dihydro-1-phenyl-2H-indol-2-one]	980,000 nM
0.67	O=C1N(c2ccccc2)c2ccccc2C1(Cc1ccncc1)Cc1cn[nH]c1 (stereo not shown) [Compound 17, 1,3-Dihydro-1-phenyl-3-(1H-pyrazol-4-ylmethyl)-3-(4-pyridinyl-methyl)-2H-indol-2-one]	3,000 nM
1.04	O=C1N(c2ccccc2)c2ccccc2C1(Cc1ccncc1)CC1CCCO1 (stereo not shown) [Compound 18, 1,3-Dihydro-1-phenyl-3-(4-pyridinylmethyl)-3-(tetrahydro-2-furanyl-methyl)-2H-indol-2-one]	34,000 nM
0.57	O=C1N(c2ccccc2)c2ccccc2C1(Cc1ccncn1)Cc1ccncn1 [Compound 16, 3,3-Bis(4-pyrimidinylmethyl)-1-phenyl-1H-indol-2(3H)-one]	3,500 nM
0.558	O=C1N2CCCc3cccc(c32)C1(Cc1ccncc1)Cc1ccncc1 [Compound 15, 1,1-Bis(4-pyridinylmethyl)5,6-dihydro-4H-pyrollo(3,2,1-IJ)quinolin-2(1H)-one]	14,000 nM
1200	Cc1nc(CC2(Cc3csc(C)n3)C(=O)N(c3ccccc3)c3ccccc32)cs1 [Compound 30, 3,3-Bis(2-methyl-4-thiazolylmethyl)-1,3-dihydro-1-phenyl-2H-indol-2-one]	980,000 nM
